Assay results as given in ChEMBL document CHEMBL4651402, “Screening of ~5500 FDA-approved drugs and clinical candidates for anti-SARS-CoV-2 activity” (2021).

Tested on: SARS-CoV-2
Test: microbe, parasite or virus in culture
Settings: Severe acute respiratory syndrome coronavirus 2, Vero C1008, 48 h

SMILES	IC50 [µM]	IC50 (read-out: pIC50 (converted)) [µM]
CCCCCCCN(CC)CCCC(O)c1ccc(NS(C)(=O)=O)cc1 (stereo not drawn) [IBUTILIDE]	> 20	> 20
C#Cc1cccc(Nc2ncnc3cc4c(cc23)OCCOCCOCCO4)c1 [ICOTINIB]	> 20	> 20
COc1cc(C(=O)O)ccc1NC(=O)[C@@H]1N[C@@H](CC(C)(C)C)[C@](C#N)(c2ccc(Cl)cc2F)[C@H]1c1cccc(Cl)c1F [IDASANUTLIN]	> 20	> 20
c1ccc2c(c1)OCC(C1=NCCN1)O2 (stereo not drawn) [IDAZOXAN]	> 20	> 20
COC1=C(OC)C(=O)C(CCCCCCCCCCO)=C(C)C1=O [IDEBENONE]	> 20	> 20
CC[C@H](Nc1ncnc2[nH]cnc12)c1nc2cccc(F)c2c(=O)n1-c1ccccc1 [IDELALISIB]	> 20	> 20
O=C1C2CC3CC1CC(O)(C3)C2 [IDRAMANTONE]	> 20	> 20
CC[C@H]1OC(=O)[C@H](C)[C@@H](O[C@H]2C[C@@](C)(OC)[C@@H](O)[C@H](C)O2)[C@H](C)[C@@H](O[C@@H]2O[C@H](C)C[C@H](N(C)C(C)C)[C@H]2O)[C@@]2(C)CC(C)=C(O2)[C@H](C)[C@@H](O)[C@]1(C)O [IDREMCINAL]	> 20	> 20
CC(C(O)c1ccc(O)cc1)N1CCC(Cc2ccccc2)CC1 (stereo not drawn) [IFENPRODIL]	> 20	> 20
O=P1(NCCCl)OCCCN1CCCl (stereo not drawn) [IFOSFAMIDE]	> 20	> 20
CCC(C/C=C/c1ccccc1)(c1ccccc1)N(C)CC1CC1 (stereo not drawn) [IGMESINE]	> 20	> 20
CS(=O)(=O)Nc1cc2occ(NC=O)c(=O)c2cc1Oc1ccccc1 [IGURATIMOD]	> 20	> 20
COc1ccnc(C[S+]([O-])c2nc3cc(-n4cccc4)ccc3[nH]2)c1C (stereo not drawn) [ILAPRAZOLE]	> 20	> 20
O=C(/C=C/c1ccc2c(c1)OCO2)N1CCCCC1 [ILEPCIMIDE]	> 20	> 20
COc1cc(C(C)=O)ccc1OCCCN1CCC(c2noc3cc(F)ccc23)CC1 [ILOPERIDONE]	> 20	> 20
c1ccc(C2CN=C3NCCN32)cc1 (stereo not drawn) [IMAFEN]	> 20	> 20
O=C1CCC(c2ccc(-n3ccnc3)cc2)=NN1 [IMAZODAN]	> 20	> 20
N=C1NC(=O)N2CC12 (stereo not drawn) [IMEXON]	> 20	> 20
O=[N+]([O-])/N=C1\NCCN1Cc1ccc(Cl)nc1 [IMIDACLOPRID]	> 20	> 20
O=C(O)Cc1c[nH]cn1 [IMIDAZOLE ACETIC ACID]	> 20	> 20
O=C(Nc1cccc(C2=NCCN2)c1)Nc1cccc(C2=NCCN2)c1 [IMIDOCARB]	> 20	> 20
CCn1ccnc1CC1COc2ccccc2O1 (stereo not drawn) [IMILOXAN]	> 20	> 20
C[C@@H](O)[C@H]1C(=O)N2C(C(=O)O)=C(SCCNC=N)C[C@H]12 [IMIPENEM ANHYDROUS]	> 20	> 20
CN(C)CCCN1c2ccccc2CCc2ccccc21 [IMIPRAMINE]	> 20	> 20
CC(C)Cn1cnc2c(N)nc3ccccc3c21 [IMIQUIMOD]	> 20	> 20
Nc1cc(-c2ccncc2)c[nH]c1=O [INAMRINONE]	> 20	> 20
CO[C@@H]1[C@H](OP(=O)(OC[C@H]2O[C@@H](n3cnc4c(N)ncnc43)C[C@@H]2O)SCOC(=O)OC(C)C)[C@@H](CO)O[C@H]1n1ccc(=O)[nH]c1=O (stereo partly drawn) [INARIGIVIR SOPROXIL]	> 20	> 20

SMILES	IC50 [µM]	IC50 (read-out: pIC50 (converted)) [µM]
CC1(c2ccccc2)Cc2cc(OCC(=O)O)c(Cl)c(Cl)c2C1=O (stereo not drawn) [INDACRINONE]	> 20	> 20
c1ccc2c(CCC3CCNCC3)c[nH]c2c1 [INDALPINE]	> 20	> 20
CC1Cc2ccccc2N1NC(=O)c1ccc(Cl)c(S(N)(=O)=O)c1 (stereo not drawn) [INDAPAMIDE]	> 20	> 20
c1ccc2[nH]ncc2c1 [INDAZOLE]	> 20	> 20
CC(C)NCCCC1(C(N)=O)c2ccccc2-c2ccccc21 [INDECAINIDE]	> 20	> 20
O=C1Nc2ccccc2/C1=C1/Nc2ccccc2C1=O [INDIRUBIN]	> 20	> 20
CC1(C)C(=O)Nc2ccc(C3=NNC(=O)CC3)cc21 [INDOLIDAN]	> 20	> 20
O=C(O)CCc1c[nH]c2ccccc12 [INDOLYLPROPIONIC ACID]	> 20	> 20
CC(C(=O)O)c1ccc(N2Cc3ccccc3C2=O)cc1 (stereo not drawn) [INDOPROFEN]	> 20	> 20
O=C(NC1CCN(CCc2c[nH]c3ccccc23)CC1)c1ccccc1 [INDORAMIN]	> 20	> 20
CCN1CCN(c2ccc(Nc3cc(N(C)C(=O)Nc4c(Cl)c(OC)cc(OC)c4Cl)ncn3)cc2)CC1 [INFIGRATINIB]	> 20	> 20
NC(=O)c1ccc(I)c([N+](=O)[O-])c1 [INIPARIB]	> 20	> 20
O=c1[nH]cnc2c1ncn2[C@@H]1O[C@H](CO)[C@@H](O)[C@H]1O [INOSINE]	> 20	> 20
O[C@H]1[C@H](O)[C@@H](O)[C@H](O)[C@@H](O)[C@H]1O [INOSITOL]	> 20	> 20
O=S(=O)(c1ccccc1)c1cnc2c(N3CCNCC3)cccc2c1 [INTEPIRDINE]	> 20	> 20
O=C(c1ccc(Cl)cc1)n1cc(Cc2nnn[nH]2)c2ccccc21 [INTRAZOLE]	> 20	> 20
CN(C)CC#CC=C1c2ccccc2C=Cc2ccccc21 [INTRIPTYLINE]	> 20	> 20
N=C(N)NCc1cccc(I)c1 [IOBENGUANE]	> 20	> 20
CC(=O)N(CC(C)C(=O)O)c1c(I)cc(I)c(N)c1I (stereo not drawn) [IOCETAMIC ACID]	> 20	> 20
O=C(CCCCC(=O)Nc1c(I)cc(I)c(C(=O)O)c1I)Nc1c(I)cc(I)c(C(=O)O)c1I [IODIPAMIDE]	> 20	> 20
CC(=O)N(CC(O)CN(C(C)=O)c1c(I)c(C(=O)NCC(O)CO)c(I)c(C(=O)NCC(O)CO)c1I)c1c(I)c(C(=O)NCC(O)CO)c(I)c(C(=O)NCC(O)CO)c1I (stereo not drawn) [IODIXANOL]	> 20	> 20
Oc1c(I)cc(I)c2cccnc12 [IODOQUINOL]	> 20	> 20
CC(=O)N(CC(O)CO)c1c(I)c(C(=O)NCC(O)CO)c(I)c(C(=O)NCC(O)CO)c1I (stereo not drawn) [IOHEXOL]	> 20	> 20
CCC(Cc1c(I)cc(I)c(N)c1I)C(=O)O (stereo not drawn) [IOPANOIC ACID]	> 20	> 20
COCC(=O)Nc1c(I)c(C(=O)NCC(O)CO)c(I)c(C(=O)N(C)CC(O)CO)c1I (stereo not drawn) [IOPROMIDE]	> 20	> 20
O=C(COCCOCCOCC(=O)Nc1c(I)cc(I)c(C(=O)O)c1I)Nc1c(I)cc(I)c(C(=O)O)c1I [IOTROXIC ACID]	> 20	> 20
O=C(NCC(O)CO)c1c(I)c(C(=O)NCC(O)CO)c(I)c(N(CCO)C(=O)CO)c1I (stereo not drawn) [IOVERSOL]	> 20	> 20
